Experimental data published in patent publication EP3628672A1 (priority 2018, dated 2020).
Read-outs that look alike come from different tables or passages of the source.

Biological target: T1, purified LasB protein from P. aeruginosa (Pseudomonas aeruginosa, UniProt P14756)
T1 construct: purchased Merck or Charles River Laboratories
Assay: Fluorometric assay to determine Ki (Abz-Ala-Gly-Leu-Ala-p-Nitro-Benzyl-Amide substrate)
Assay type: biochemical
Procedure: Experiments were therefore conducted (1) to measure the potency of inhibition of compounds of the invention against purified Pseudomonas aeruginosa LasB enzyme and also experiments were conducted (2) to measure the ability of compounds of the invention to inhibit LasB-catalysed elastin degradation. The first assay uses a commercial fluorescent synthetic peptide and purified LasB enzyme. The LasB hydrolysis kinetics are measured allowing the determination of the IC50 and Ki of the inhibitors; the second is a more physiological assay using dialysed Pseudomonas aeruginosa supernatant as source of enzyme, plus its natural substrate Elastin. It is an "end point assay" that determines the percentage of LasB inhibition by each compound for one particular time point and inhibitor concentration. Technical details are described below:
This assay uses commercially available substrate (Abz-Ala-Gly-Leu-Ala-p-Nitro-Benzyl-Amide (Ex: 340 nm, Em: 415 nm) from Peptide International) and purified LasB protein from P. aeruginosa (provided by Merck or Charles River Laboratories). It is performed to determine LasB elastase activity and assess compound inhibition in 96-well plate format. All compounds of Formula (I) were assessed using the method described below.
Method: 10 to 140 ng/ml purified LasB is incubated with 250 µM Abz-Ala-Gly-Leu-Ala-p-Nitro-Benzyl-Amide in 50 mM Tris-HCl pH 7.4, 2.5 mM CaCl2, 0.01% of Triton X100 at 37°C. LasB activity (corresponding to fluorescence emission induced by substrate hydrolysis) is measured over 30 min at 37°C with a fluorescence plate reader such as the Perkin Elmer Envision or similar. Different range of inhibitor concentrations are routinely assessed depending of inhibitor potency from 0.0016 to 200 µM (2-fold dilutions series) in order to determine IC50.
The equation used to calculate the Ki from IC50 is: Ki = IC50 / (1+([S]/Km)) where [S] = 250 µM and Km = 214 µM.

[1] = Ki calculated from IC50, [S] = 250 µM, Km = 214 µM, 37°C, pH 7.4

T1 sequence (P14756 198-498): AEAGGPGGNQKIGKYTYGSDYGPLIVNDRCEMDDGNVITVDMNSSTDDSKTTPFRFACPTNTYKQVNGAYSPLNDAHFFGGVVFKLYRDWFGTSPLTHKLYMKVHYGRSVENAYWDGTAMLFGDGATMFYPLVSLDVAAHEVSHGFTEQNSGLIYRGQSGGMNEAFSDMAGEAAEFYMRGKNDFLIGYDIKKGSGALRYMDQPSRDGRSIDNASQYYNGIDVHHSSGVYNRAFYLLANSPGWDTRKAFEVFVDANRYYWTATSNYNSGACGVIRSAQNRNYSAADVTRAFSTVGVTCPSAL

O=C(O)CC1(C(=O)NCc2nc3ccccc3s2)Cc2cc(Cl)c(Cl)cc2C1 [Example 4, 2-(2-((benzo[d]thiazol-2-ylmethyl)carbamoyl)-5,6-dichloro-2,3-dihydro-1H-inden-2-yl)acetic acid]
Ki: 0.2 to 10 µM

CN(C)C1CCN(C(=O)c2ccc(-c3csc(CNC(=O)C4(CC(=O)O)Cc5ccccc5C4)n3)cc2)CC1 [Example 17, 2-[2-[[4-[4-[4-(dimethylamino)piperidine-1-carbonyl]phenyl]thiazol-2-yl]methylcarbamoyl]indan-2-yl] acetic acid]
Ki: 0.2 to 10 µM

CN(C)[C@H]1CCN(C(=O)c2ccc(-c3csc(CNC(=O)C4(CC(=O)O)Cc5ccccc5C4)n3)cc2)C1 [Example 18, 2-[2-[[4-[4-[(3S)-3-(dimethylamino)pyrrolidine-1-carbonyl]phenyl]thiazol-2-yl]methylcarbamoyl]indan-2-yl]acetic acid]
Ki: 0.2 to 10 µM

CN(C)CCCNC(=O)c1ccccc1-c1csc(CNC(=O)C2(CC(=O)O)Cc3ccccc3C2)n1 [Example 21, 2-[2-[[4-[2-[3-(dimethylamino)propylcarbamoyl]phenyl]thiazol-2-yl]methylcarbamoyl]indan-2-yl]acetic acid]
Ki: 0.2 to 10 µM

C[N+]1(C)CCN(C(=O)c2ccc(-c3csc(CNC(=O)C4(CC(=O)[O-])Cc5ccccc5C4)n3)cc2)CC1 [Example 22, 2-[2-[[4-[4-(4,4-dimethylpiperazin-4-ium-1-carbonyl)phenyl]thiazol-2-yl]methylcarbamoyl]indan-2-yl]acetate]
Ki: 0.2 to 10 µM

COc1ccc(C(=O)NCCN(C)C)cc1-c1csc(CNC(=O)C2(CC(=O)O)Cc3ccccc3C2)n1 [Example 24, 2-[2-[[4-[5-[2-(dimethylamino)ethylcarbamoyl]-2-methoxy-phenyl]thiazol-2-yl]methylcarbamoyl]indan-2-yl]acetic acid]
Ki: 0.2 to 10 µM

COc1ccc(C(=O)N2CCN(C)CC2)cc1-c1csc(CNC(=O)C2(CC(=O)O)Cc3ccccc3C2)n1 [Example 25, 2-[2-[[4-[2-methoxy-5-(4-methylpiperazine-1-carbonyl)phenyl)thiazol-2-yl]methylcarbamoyl]indan-2-yl]acetic acid]
Ki: 0.2 to 10 µM

CN(C)C1CN(c2cccc(-c3csc(CNC(=O)C4(CC(=O)O)Cc5ccccc5C4)n3)c2)C1 [Example 29, 2-[2-[[4-[3-[3-(dimethylamino)azetidin-1-yl]phenyl]thiazol-2-yl]methylcarbamoyl]indan-2-yl]acetic acid]
Ki: 0.2 to 10 µM

C[N+](C)(C)CC(=O)Nc1ccc(-c2csc(CNC(=O)C3(CC(=O)[O-])Cc4ccccc4C3)n2)cc1 [Example 40, 2-[2-[[4-[4-[[2-(trimethylammonio)acetyl]amino]phenyl]thiazol-2-yl]methylcarbamoyl]indan-2-yl] acetate]
Ki: 0.2 to 10 µM

CN(C)CC(=O)Nc1cccc(-c2csc(CNC(=O)C3(CC(=O)O)Cc4ccccc4C3)n2)c1 [Example 41, 2-[2-[[4-[3-[[2-(dimethylamino)acetyl]amino]phenyl]thiazol-2-yl]methylcarbamoyl]indan-2-yl]acetic acid]
Ki: 0.2 to 10 µM

C[N+](C)(C)CC(=O)Nc1cccc(-c2csc(CNC(=O)C3(CC(=O)[O-])Cc4ccccc4C3)n2)c1 [Example 42, 2-[2-[[4-[3-[[2-(trimethylammonio)acetyl]amino]phenyl]thiazol-2-yl]methylcarbamoyl]indan-2-yl] acetate]
Ki: 0.2 to 10 µM

CN(C)CCOc1ccc(-c2csc(CNC(=O)C3(CC(=O)O)Cc4ccccc4C3)n2)cc1 [Example 48, 2-[2-[[4-[4-[2-(dimethylamino)ethoxy]phenyl]thiazol-2-yl]methylcarbamoyl]indan-2-yl]acetic acid]
Ki: 0.2 to 10 µM

NC1CCN(C(=O)COc2ccc(-c3csc(CNC(=O)C4(CC(=O)O)Cc5ccccc5C4)n3)cc2)CC1 [Example 52, 2-[2-[[4-[4-[2-(4-amino-1-piperidyl)-2-oxo-ethoxy]phenyl]thiazol-2-yl]methylcarbamoyl]indan-2-yl]acetic acid]
Ki: 0.05 to 0.2 µM

CN(C)CCOc1cccc(-c2csc(CNC(=O)C3(CC(=O)O)Cc4ccccc4C3)n2)c1 [Example 53, 2-[2-[[4-[3-[2-(dimethylamino)ethoxy]phenyl]thiazol-2-yl]methylcarbamoyl]indan-2-yl]acetic acid]
Ki: 0.2 to 10 µM

CN(C)CCn1cc(-c2csc(CNC(=O)C3(CC(=O)O)Cc4ccccc4C3)n2)cn1 [Example 97, 2-[2-[[4-[1-[2-(dimethylamino)ethyl]pyrazol-4-yl]thiazol-2-yl]methylcarbamoyl]indan-2-yl]acetic acid]
Ki: 0.2 to 10 µM

C[N+]1(CCCn2cc(-c3csc(CNC(=O)C4(CC(=O)[O-])Cc5ccccc5C4)n3)cn2)CCOCC1 [Example 100, 2-[2-[[4-[1-[3-(4-methylmorpholin-4-ium-4-yl)propyl]pyrazol-4-yl]thiazol-2-yl]methylcarbamoyl]indan-2-yl]acetate]
Ki [1]: 0.2 to 10 µM

CC(=O)N1CC[N+](C)(CCCn2cc(-c3csc(CNC(=O)C4(CC(=O)[O-])Cc5ccccc5C4)n3)cn2)CC1 [Example 107, 2-[2-[[4-[1-[3-(4-acetyl-1-methyl-piperazin-1-ium-1-yl)propyl]pyrazol-4-yl]thiazol-2-yl]methylcarbamoyl]indan-2-yl]acetate]
Ki: 0.2 to 10 µM

O=C(O)CC1(C(=O)NCc2nc(-c3cnn(CCCN4CCCCC4)c3)cs2)Cc2ccccc2C1 [Example 111, 2-[2-[[4-[1-[3-(1-piperidyl)propyl]pyrazol-4-yl]thiazol-2-yl]methylcarbamoyl]indan-2-yl]acetic acid]
Ki: 0.2 to 10 µM

CN(C)C(=O)C1CCN(CCCn2cc(-c3csc(CNC(=O)C4(CC(=O)O)Cc5ccccc5C4)n3)cn2)CC1 [Example 113, 2-[2-[[4-[1-[3-[4-(dimethylcarbamoyl)-1-piperidyl]propyl]pyrazol-4-yl]thiazol-2-yl]methylcarbamoyl]indan-2-yl]acetic acid]
Ki: 0.2 to 10 µM

C[N+]1(C)CCC(C(=O)N2CC[N+](C)(CCCn3cc(-c4csc(CNC(=O)C5(CC(=O)O)Cc6ccccc6C5)n4)cn3)CC2)CC1 [Example 115, 2-[2-[[4-[1-[3-[4-(1,1-dimethylpiperidin-1-ium-4-carbonyl)-1-methyl-piperazin-1-ium-1-yl]propyl]pyrazol-4-yl]thiazol-2-yl]methylcarbamoyl]indan-2-yl] acetate]
Ki [1]: 0.2 to 10 µM

C[n+]1ccc(CCn2cc(-c3csc(CNC(=O)C4(CC(=O)[O-])Cc5ccccc5C4)n3)cn2)cc1 [Example 117, 2-[2-[[4-[1-[2-(1-methylpyridin-1-ium-4-yl)ethyl]pyrazol-4-yl]thiazol-2-yl]methylcarbamoyl]indan-2-yl]acetate]
Ki: 0.2 to 10 µM

C[n+]1ccc(CCCn2cc(-c3csc(CNC(=O)C4(CC(=O)[O-])Cc5ccccc5C4)n3)cn2)cc1 [Example 118, 2-[2-[[4-[1-[3-(1-methylpyridin-1-ium-4-yl)propyl]pyrazol-4-yl]thiazol-2-yl]methylcarbamoyl]indan-2-yl]acetate]
Ki: 0.2 to 10 µM

CN(C)CCNS(=O)(=O)c1ccc(-c2csc(CNC(=O)C3(CC(=O)O)Cc4ccccc4C3)n2)cc1 [Example 131, 2-[2-[[4-[4-[2-(dimethylamino)ethylsulfamoyl]phenyl]thiazol-2-yl]methylcarbamoyl]indan-2-yl]acetic acid]
Ki: 0.2 to 10 µM

CN1CCN(C(=O)c2cncc(-c3csc(CNC(=O)C4(CC(=O)O)Cc5ccccc5C4)n3)c2)CC1 [Example 144, 2-[2-[[4-[5-(4-methylpiperazine-1-carbonyl)-3-pyridyl]thiazol-2-yl]methylcarbamoyl]indan-2-yl]acetic acid]
Ki: 0.2 to 10 µM
